Assay results published in patent US10392368B2, “Pyrazolo and triazolo bicyclic compounds as JAK kinase inhibitors” (THERAVANCE BIOPHARMA R&D IP, LLC, priority 2017, dated 2019).

Key:
JAK1 = biological target: T1, JAK1 (Homo sapiens, UniProt P23458); test: Biochemical JAK1 kinase assay (LanthaScreen); settings: for Ki: read-out: JAK 1 (pKi) (converted)
T1 construct: GST; purchased Life Technologies
Experimental: (§1) A panel of four LanthaScreen JAK biochemical assays (JAK1, 2, 3 and Tyk2) were carried in a common kinase reaction buffer (50 mM HEPES, pH 7.5, 0.01% Brij-35, 10 mM MgCl2, and 1 mM EGTA). Recombinant GST-tagged JAK enzymes and a GFP-tagged STAT1 peptide substrate were obtained from Life Technologies.
(§2) Serially or discretely diluted compounds were pre-incubated with each of the four JAK enzymes and the substrate in white 384-well microplates (Corning) at ambient temperature for 1 h. ATP was subsequently added to initiate the kinase reactions in 10 μL total volume, with 1% DMSO. […] Kinase reactions were allowed to proceed for 1 hour at ambient temperature before a 10 μL preparation of EDTA (10 mM final concentration) and Tb-anti-pSTAT1 (pTyr701) antibody (Life Technologies, 2 nM final concentration) in TR-FRET dilution buffer (Life Technologies) was added. The plates were allowed to incubate at ambient temperature for 1 h before being read on the EnVision reader (Perkin Elmer). Emission ratio signals (520 nm/495 nm) were recorded and utilized to calculate the percent inhibition values based on DMSO and background controls.
(§3) For dose-response analysis, percent inhibition data were plotted vs. compound concentrations, and IC50 values were determined from a 4-parameter robust fit model with the Prism software (GraphPad Software). Results were expressed as pIC50 (negative logarithm of IC50) and subsequently converted to pKi (negative logarithm of dissociation constant, Ki) using the Cheng-Prusoff equation.

[1] = system: IL-2 stimulated pSTAT5 in Tall-1 T cells; test: Cellular JAK3 potency assay: inhibition of IL-2 stimulated pSTAT5 in Tall-1 T cells; format: cell-based, human; settings: for IC50: Homo sapiens, TALL-1, IL-2 stimulated pSTAT5 in Tall-1 T cells, read-out: Tall-1 (pIC50) (converted); for Tall-1 (pIC50): IL-2 stimulated pSTAT5 in Tall-1 T cells
Experimental: The potency of test compounds for inhibition of interleukin-2 (IL-2) stimulated STAT5 phosphorylation was measured in the Tall-1 human T cell line (DSMZ) using AlphaLisa. Because IL-2 signals through JAK3, this assay provides a measure of JAK3 cellular potency.
Compounds were serially diluted in DMSO and dispensed acoustically to empty wells. Assay media (phenol red-free DMEM (Life Technologies) supplemented with 10% FBS (ATCC)) was dispensed (4 μL/well) and plates shaken at 900 rpm for 10 mins. Cells were seeded at 45,000 cells/well in assay media (4 μL/well), and incubated at 37° C., 5% CO2 for 1 hour, followed by the addition of IL-2 (R&D Systems; final concentration 300 ng/ml) in pre-warmed assay media (4 μL) for 30 minutes. After cytokine stimulation, cells were lysed with 6 ul of 3× AlphaLisa Lysis Buffer (PerkinElmer) containing 1× PhosStop and Complete tablets (Roche). The lysate was shaken at 900 rpm for 10 minutes at room temperature (RT). Phosphorylated STAT5 was measured via the pSTAT5 AlphaLisa kit (PerkinElmer). Freshly prepared acceptor bead mixture was dispensed onto lysate (5 μL) under green filtered <100 lux light. Plates were shaken at 900 rpm for 2 mins, briefly spun down, and incubated for 2 hrs at RT in the dark. Donor beads were dispensed (5 μL) under green filtered <100 lux light. Plates were shaken at 900 rpm for 2 minutes, briefly spun down, and incubated overnight at RT in the dark.
To determine the inhibitory potency of test compounds in response to IL-2, the average emission intensity of beads bound to pSTAT5 was measured in a human T cell line. IC50 values were determined from analysis of the inhibition curves of signal intensity versus compound concentration. Data are expressed as pIC50 (negative decadic logarithm IC50) values (mean±standard deviation).

JAK3 = biological target: T2, JAK3 (Homo sapiens, UniProt P52333); test: Biochemical JAK3 kinase assay (LanthaScreen); parameters: GST; purchased Life Technologies; settings: for Ki: read-out: JAK 3 (pKi) (converted); for JAK3 (pKi)-JAK1 (pKi): selectivity: difference of pKi JAK3 and pKi JAK1
T2 sequence (P52333 1-1124): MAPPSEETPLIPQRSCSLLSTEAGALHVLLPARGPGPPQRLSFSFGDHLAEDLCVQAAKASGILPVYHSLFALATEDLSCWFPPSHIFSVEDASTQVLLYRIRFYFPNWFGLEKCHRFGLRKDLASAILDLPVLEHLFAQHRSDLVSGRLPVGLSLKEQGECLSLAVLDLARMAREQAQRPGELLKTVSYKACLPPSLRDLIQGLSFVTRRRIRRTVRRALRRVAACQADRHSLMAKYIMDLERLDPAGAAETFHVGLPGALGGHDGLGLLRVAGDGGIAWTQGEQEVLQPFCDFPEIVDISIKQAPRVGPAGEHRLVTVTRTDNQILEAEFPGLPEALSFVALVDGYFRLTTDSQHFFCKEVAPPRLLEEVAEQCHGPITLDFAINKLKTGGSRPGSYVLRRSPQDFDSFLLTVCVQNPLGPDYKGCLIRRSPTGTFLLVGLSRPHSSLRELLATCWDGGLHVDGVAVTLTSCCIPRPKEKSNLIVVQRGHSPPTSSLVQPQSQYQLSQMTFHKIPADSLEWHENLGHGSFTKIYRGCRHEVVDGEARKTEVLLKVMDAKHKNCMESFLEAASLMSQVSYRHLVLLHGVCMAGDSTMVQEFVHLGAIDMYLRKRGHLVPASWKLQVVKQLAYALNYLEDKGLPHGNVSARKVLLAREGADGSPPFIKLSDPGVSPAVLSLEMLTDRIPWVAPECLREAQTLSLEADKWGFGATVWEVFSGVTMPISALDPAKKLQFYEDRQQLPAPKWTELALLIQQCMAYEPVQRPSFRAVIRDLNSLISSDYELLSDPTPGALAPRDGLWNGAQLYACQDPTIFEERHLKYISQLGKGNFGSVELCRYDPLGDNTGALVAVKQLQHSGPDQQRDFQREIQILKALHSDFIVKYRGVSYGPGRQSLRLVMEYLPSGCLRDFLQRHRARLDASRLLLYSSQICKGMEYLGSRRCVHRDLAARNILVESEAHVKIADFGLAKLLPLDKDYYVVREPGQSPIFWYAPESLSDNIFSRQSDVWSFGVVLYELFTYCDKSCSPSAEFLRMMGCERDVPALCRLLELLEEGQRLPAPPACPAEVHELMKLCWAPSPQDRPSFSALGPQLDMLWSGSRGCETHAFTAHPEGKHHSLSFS
Experimental: as §1, §2, §3

T1 sequence (P23458 whole entry): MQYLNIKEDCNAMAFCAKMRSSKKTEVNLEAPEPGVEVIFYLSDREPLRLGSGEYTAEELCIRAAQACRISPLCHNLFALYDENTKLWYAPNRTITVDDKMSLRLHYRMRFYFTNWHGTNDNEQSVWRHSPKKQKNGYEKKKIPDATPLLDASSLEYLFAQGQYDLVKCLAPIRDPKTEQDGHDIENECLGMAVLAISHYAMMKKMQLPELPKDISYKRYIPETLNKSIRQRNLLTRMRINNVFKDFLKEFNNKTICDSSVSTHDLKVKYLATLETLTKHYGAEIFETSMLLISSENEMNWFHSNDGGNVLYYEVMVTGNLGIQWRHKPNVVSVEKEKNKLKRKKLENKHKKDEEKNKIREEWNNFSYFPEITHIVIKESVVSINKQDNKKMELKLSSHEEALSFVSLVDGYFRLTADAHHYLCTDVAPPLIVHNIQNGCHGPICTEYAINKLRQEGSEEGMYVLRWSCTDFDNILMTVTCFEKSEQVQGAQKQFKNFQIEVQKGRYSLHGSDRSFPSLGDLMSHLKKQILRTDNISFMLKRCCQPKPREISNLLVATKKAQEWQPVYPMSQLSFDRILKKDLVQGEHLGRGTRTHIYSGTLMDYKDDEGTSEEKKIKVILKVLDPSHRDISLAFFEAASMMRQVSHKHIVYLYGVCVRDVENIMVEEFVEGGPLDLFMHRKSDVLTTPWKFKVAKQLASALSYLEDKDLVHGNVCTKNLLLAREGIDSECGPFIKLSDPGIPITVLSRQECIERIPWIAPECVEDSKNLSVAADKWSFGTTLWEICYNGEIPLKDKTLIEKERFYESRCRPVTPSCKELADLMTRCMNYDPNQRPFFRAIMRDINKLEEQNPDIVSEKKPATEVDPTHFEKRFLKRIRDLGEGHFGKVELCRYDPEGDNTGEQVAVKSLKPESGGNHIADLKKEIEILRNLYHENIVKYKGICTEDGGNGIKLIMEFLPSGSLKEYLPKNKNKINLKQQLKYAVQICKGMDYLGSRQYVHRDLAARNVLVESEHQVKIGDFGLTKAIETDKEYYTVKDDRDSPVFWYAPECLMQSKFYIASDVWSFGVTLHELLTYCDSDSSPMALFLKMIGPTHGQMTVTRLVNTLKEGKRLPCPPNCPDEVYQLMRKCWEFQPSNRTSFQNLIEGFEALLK

| Structure (SMILES) | Ki (JAK1) [nM] | IC50 [1] [nM] | Ki (JAK3) [nM] | JAK3 (pKi)-JAK1 (pKi) (JAK3) | JAK 1 (pKi) (JAK1) | Tall-1 (pIC50) [1] | JAK 3 (pKi) (JAK3) |
| --- | --- | --- | --- | --- | --- | --- | --- |
| C=CC(=O)N1CC[C@H](Oc2cc(-c3ccc(O)cc3)cc3[nH]nc(SC)c23)C1 [Compound 1-39] | > 100 | 31.6 to 200 | 0.1 to 1 | A (a value of 3 or above) | – | – | – |
| C=CC(=O)N1CC[C@H](Oc2cc(-c3ccc(O)cc3)cc3[nH]nc(N(C)C)c23)C1 [Compound 1-42] | > 100 | 200 to 1000 | 0.1 to 1 | A (a value of 3 or above) | – | – | – |
| C=CC(=O)N1CC[C@H](Oc2cc(-c3ccc(O)cc3)cc3[nH]nc(C(F)(F)F)c23)C1 [Compound 1-43] | > 100 | < 31.6 | < 0.1 | A (a value of 3 or above) | – | – | – |
| CN(C)C/C=C/C(=O)N1CC[C@H](Oc2cc(-c3ccc(O)cc3)cc3[nH]nc(Cl)c23)C1 [Compound 1-48] | – | – | – | B (a value of 2.3 to 3) | E (a pKi value of 7 or below (Ki of 100 nM or above)) | B (a pIC50 value between 6.7 (included) and 7.5 (IC50 between 200 nM and 32 nM)) | C (a pKi value between 8 and 9 (Ki between 10 nM and 1 nM)) |
| CN(C)C/C=C/C(=O)N1CC[C@H](COc2cc(-c3ccc(O)cc3)cc3[nH]ncc23)C1 [Compound 2-1] | – | – | – | B (a value of 2.3 to 3) | D (a pKi value between 7 and 8 (Ki between 100 nM and 10 nM)) | C (a pIC50 value between 6 and 6.7 (IC50 between 1 μM and 200 nM)) | A (a pKi value≥10 (Ki≤0.1 nM)) |
| CN(C)C/C=C/C(=O)N1CC[C@H](COc2cc(-c3ccc(O)c(F)c3)cc3[nH]ncc23)C1 [Compound 2-4] | – | – | – | B (a value of 2.3 to 3) | E (a pKi value of 7 or below (Ki of 100 nM or above)) | C (a pIC50 value between 6 and 6.7 (IC50 between 1 μM and 200 nM)) | B (a pKi value between 9 and 10 (Ki between 1 nM and 0.1 nM)) |
| C=CC(=O)N1CC[C@H](COc2cc(-c3ccc(O)cc3)nc3[nH]ncc23)C1 [Compound 2-6] | – | – | – | A (a value of 3 or above) | E (a pKi value of 7 or below (Ki of 100 nM or above)) | C (a pIC50 value between 6 and 6.7 (IC50 between 1 μM and 200 nM)) | A (a pKi value≥10 (Ki≤0.1 nM)) |
| C=CC(=O)N1CC[C@H](COc2nc(-c3ccc(O)cc3)nc3[nH]ncc23)C1 [Compound 2-7] | – | – | – | A (a value of 3 or above) | E (a pKi value of 7 or below (Ki of 100 nM or above)) | B (a pIC50 value between 6.7 (included) and 7.5 (IC50 between 200 nM and 32 nM)) | B (a pKi value between 9 and 10 (Ki between 1 nM and 0.1 nM)) |
| CN(C)C/C=C/C(=O)N1CC[C@H](COc2nc(-c3ccc(O)c(Cl)c3)cc3[nH]ncc23)C1 [Compound 2-9] | – | – | – | B (a value of 2.3 to 3) | E (a pKi value of 7 or below (Ki of 100 nM or above)) | B (a pIC50 value between 6.7 (included) and 7.5 (IC50 between 200 nM and 32 nM)) | B (a pKi value between 9 and 10 (Ki between 1 nM and 0.1 nM)) |
| CN(C)C/C=C/C(=O)N1CC[C@H](COc2nc(-c3ccc(O)c(F)c3)cc3[nH]ncc23)C1 [Compound 2-13] | – | – | – | B (a value of 2.3 to 3) | E (a pKi value of 7 or below (Ki of 100 nM or above)) | C (a pIC50 value between 6 and 6.7 (IC50 between 1 μM and 200 nM)) | B (a pKi value between 9 and 10 (Ki between 1 nM and 0.1 nM)) |
| C=CC(=O)N1CC[C@H](COc2nc(-c3ccc(O)c(Cl)c3)cc3[nH]ncc23)C1 [Compound 2-14] | – | – | – | A (a value of 3 or above) | E (a pKi value of 7 or below (Ki of 100 nM or above)) | A (a pIC50 value≥7.5 (IC50≤32 nM)) | A (a pKi value≥10 (Ki≤0.1 nM)) |
| C=CC(=O)N1CC[C@H](COc2cc(-c3ccc(O)c(Cl)c3)nc3[nH]ncc23)C1 [Compound 2-16] | – | – | – | A (a value of 3 or above) | E (a pKi value of 7 or below (Ki of 100 nM or above)) | C (a pIC50 value between 6 and 6.7 (IC50 between 1 μM and 200 nM)) | B (a pKi value between 9 and 10 (Ki between 1 nM and 0.1 nM)) |
| C=CC(=O)N1CC(F)(COc2cc(-c3ccc(O)cc3)cc3[nH]ncc23)C1 [Compound 3-6] | 10 to 100 | < 31.6 | < 0.1 | A (a value of 3 or above) | – | – | – |
| CN(C)C/C=C/C(=O)N1CC(C)(COc2cc(-c3ccc(O)c(Cl)c3)cc3[nH]ncc23)C1 [Compound 3-9] | > 100 | 31.6 to 200 | 0.1 to 1 | B (a value of 2.3 to 3) | – | – | – |
| C=CC(=O)N1CC(C)(COc2cc(-c3ccc(O)c(Cl)c3)cc3[nH]ncc23)C1 [Compound 3-10] | – | – | – | A (a value of 3 or above) | E (a pKi value of 7 or below (Ki of 100 nM or above)) | A (a pIC50 value≥7.5 (IC50≤32 nM)) | B (a pKi value between 9 and 10 (Ki between 1 nM and 0.1 nM)) |
| C=CC(=O)N1CC(C)(COc2cc(-c3ccc(O)c(F)c3)cc3[nH]ncc23)C1 [Compound 3-12] | > 100 | 31.6 to 200 | 0.1 to 1 | B (a value of 2.3 to 3) | – | – | – |
| C=CC(=O)N1CC(CC)(COc2cc(-c3ccc(O)cc3)cc3[nH]ncc23)C1 [Compound 3-14] | – | – | – | A (a value of 3 or above) | E (a pKi value of 7 or below (Ki of 100 nM or above)) | B (a pIC50 value between 6.7 (included) and 7.5 (IC50 between 200 nM and 32 nM)) | B (a pKi value between 9 and 10 (Ki between 1 nM and 0.1 nM)) |
